In PubChem BioAssay (NCI):
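The compound was tested at five concentrations on cells cultured in 96-well plates, with a 48-hour exposure period. At the TGI there is no net growth.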

Columns and labels:
Assay in all cases: NCI anticancer screen, dose series, 48 h
IGROV1 ovarian = test system: IGROV1 ovarian
COLO 205 colon = test system: COLO 205 colon
HCT-15 colon = test system: HCT-15 colon
PC-3 prostate = test system: PC-3 prostate
DU-145 prostate = test system: DU-145 prostate
CAKI-1 renal = test system: CAKI-1 renal
SNB-75 CNS = test system: SNB-75 CNS
HT29 colon = test system: HT29 colon
786-0 renal = test system: 786-0 renal
MDA-MB-231 breast = test system: MDA-MB-231 breast
MDA-N = test system: MDA-N
MALME-3M melanoma = test system: MALME-3M melanoma
SW-620 colon = test system: SW-620 colon
KM12 colon = test system: KM12 colon
SK-MEL-28 melanoma = test system: SK-MEL-28 melanoma
HOP-62 NSCLC = test system: HOP-62 NSCLC
MCF7 breast = test system: MCF7 breast
SR leukemia = test system: SR leukemia
CCRF-CEM leukemia = test system: CCRF-CEM leukemia
HL-60(TB) leukemia = test system: HL-60(TB) leukemia
EKVX NSCLC = test system: EKVX NSCLC
SK-MEL-5 melanoma = test system: SK-MEL-5 melanoma
RXF 393 renal = test system: RXF 393 renal
A549 NSCLC = test system: A549 NSCLC
UACC-257 melanoma = test system: UACC-257 melanoma
SK-OV-3 ovarian = test system: SK-OV-3 ovarian
SN12C renal = test system: SN12C renal
NCI-H23 lung = test system: NCI-H23 lung
T-47D breast = test system: T-47D breast
M14 melanoma = test system: M14 melanoma
UACC-62 melanoma = test system: UACC-62 melanoma
SF-295 CNS = test system: SF-295 CNS
TK-10 renal = test system: TK-10 renal
LOX IMVI melanoma = test system: LOX IMVI melanoma
MOLT-4 leukemia = test system: MOLT-4 leukemia
RPMI-8226 leukemia = test system: RPMI-8226 leukemia
HCC-2998 colon = test system: HCC-2998 colon
OVCAR-8 ovarian = test system: OVCAR-8 ovarian
K-562 leukemia = test system: K-562 leukemia
SF-268 CNS = test system: SF-268 CNS
OVCAR-3 ovarian = test system: OVCAR-3 ovarian
HS 578T breast = test system: HS 578T breast
NCI-H226 lung = test system: NCI-H226 lung
NCI-H460 lung = test system: NCI-H460 lung
HCT-116 colon = test system: HCT-116 colon
U251 CNS = test system: U251 CNS
HOP-92 NSCLC = test system: HOP-92 NSCLC
SF-539 CNS = test system: SF-539 CNS
OVCAR-5 ovarian = test system: OVCAR-5 ovarian
A498 renal = test system: A498 renal
NCI-H522 lung = test system: NCI-H522 lung
NCI/ADR-RES ovarian = test system: NCI/ADR-RES ovarian
SK-MEL-2 melanoma = test system: SK-MEL-2 melanoma
ACHN renal = test system: ACHN renal
MDA-MB-435 = test system: MDA-MB-435
OVCAR-4 ovarian = test system: OVCAR-4 ovarian
SNB-19 CNS = test system: SNB-19 CNS
UO-31 renal = test system: UO-31 renal

SMILES: C=CCc1c(O)c2nsnc2c2nsnc12
- TGI (IGROV1 ovarian): > 10 µM
- TGI (COLO 205 colon): > 10 µM
- TGI (HCT-15 colon): > 10 µM
- TGI (PC-3 prostate): > 10 µM
- TGI (DU-145 prostate): > 10 µM
- TGI (CAKI-1 renal): > 10 µM
- TGI (SNB-75 CNS): > 10 µM
- TGI (HT29 colon): > 10 µM
- TGI (786-0 renal): > 10 µM
- TGI (MDA-MB-231 breast): > 10 µM
- TGI (MDA-N): > 10 µM
- TGI (MALME-3M melanoma): > 10 µM
- TGI (SW-620 colon): > 10 µM
- TGI (KM12 colon): > 10 µM
- TGI (SK-MEL-28 melanoma): > 10 µM
- TGI (HOP-62 NSCLC): > 10 µM
- TGI (MCF7 breast): > 10 µM
- TGI (SR leukemia): > 10 µM
- TGI (CCRF-CEM leukemia): > 10 µM
- TGI (HL-60(TB) leukemia): > 10 µM
- TGI (EKVX NSCLC): > 10 µM
- TGI (SK-MEL-5 melanoma): > 10 µM
- TGI (RXF 393 renal): > 10 µM
- TGI (A549 NSCLC): > 10 µM
- TGI (UACC-257 melanoma): > 10 µM
- TGI (SK-OV-3 ovarian): > 10 µM
- TGI (SN12C renal): > 10 µM
- TGI (NCI-H23 lung): > 10 µM
- TGI (T-47D breast): > 10 µM
- TGI (M14 melanoma): > 10 µM
- TGI (UACC-62 melanoma): > 10 µM
- TGI (SF-295 CNS): > 10 µM
- TGI (TK-10 renal): > 10 µM
- TGI (LOX IMVI melanoma): > 10 µM
- TGI (MOLT-4 leukemia): > 10 µM
- TGI (RPMI-8226 leukemia): > 10 µM
- TGI (HCC-2998 colon): > 10 µM
- TGI (OVCAR-8 ovarian): > 10 µM
- TGI (K-562 leukemia): > 10 µM
- TGI (SF-268 CNS): > 10 µM

SMILES: CN(C)N1C(=O)S/C(=C\c2ccc([N+](=O)[O-])cc2)C1=O
- TGI (OVCAR-3 ovarian): > 100 µM
- TGI (IGROV1 ovarian): > 100 µM
- TGI (HS 578T breast): > 100 µM
- TGI (COLO 205 colon): > 100 µM
- TGI (HCT-15 colon): > 100 µM
- TGI (PC-3 prostate): > 100 µM
- TGI (NCI-H226 lung): > 100 µM
- TGI (DU-145 prostate): > 100 µM
- TGI (NCI-H460 lung): > 100 µM
- TGI (CAKI-1 renal): > 100 µM
- TGI (HCT-116 colon): > 100 µM
- TGI (U251 CNS): > 100 µM
- TGI (SNB-75 CNS): 98.7 µM
- TGI (HT29 colon): > 100 µM
- TGI (786-0 renal): > 100 µM
- TGI (MDA-MB-231 breast): > 100 µM
- TGI (HOP-92 NSCLC): > 100 µM
- TGI (MDA-N): > 100 µM
- TGI (MALME-3M melanoma): > 100 µM
- TGI (KM12 colon): > 100 µM
- TGI (SK-MEL-28 melanoma): > 100 µM
- TGI (HOP-62 NSCLC): > 100 µM
- TGI (SF-539 CNS): > 100 µM
- TGI (MCF7 breast): > 100 µM
- TGI (SR leukemia): > 100 µM
- TGI (CCRF-CEM leukemia): > 100 µM
- TGI (HL-60(TB) leukemia): > 100 µM
- TGI (EKVX NSCLC): > 100 µM
- TGI (SK-MEL-5 melanoma): > 100 µM
- TGI (OVCAR-5 ovarian): > 100 µM
- TGI (A498 renal): > 100 µM
- TGI (RXF 393 renal): > 100 µM
- TGI (A549 NSCLC): > 100 µM
- TGI (UACC-257 melanoma): > 100 µM
- TGI (NCI-H522 lung): > 100 µM
- TGI (SK-OV-3 ovarian): > 100 µM
- TGI (NCI/ADR-RES ovarian): > 100 µM
- TGI (SN12C renal): > 100 µM
- TGI (NCI-H23 lung): > 100 µM
- TGI (T-47D breast): > 100 µM
- TGI (M14 melanoma): > 100 µM
- TGI (SK-MEL-2 melanoma): > 100 µM
- TGI (UACC-62 melanoma): > 100 µM
- TGI (ACHN renal): > 100 µM
- TGI (SF-295 CNS): > 100 µM
- TGI (TK-10 renal): > 100 µM
- TGI (MDA-MB-435): > 100 µM
- TGI (LOX IMVI melanoma): > 100 µM
- TGI (MOLT-4 leukemia): > 100 µM
- TGI (HCC-2998 colon): > 100 µM
- TGI (OVCAR-8 ovarian): > 100 µM
- TGI (SF-268 CNS): > 100 µM
- TGI (OVCAR-4 ovarian): > 100 µM

SMILES: Cc1c(CCCl)c(N=P(c2ccccc2)(c2ccccc2)c2ccccc2)n2c(nc3ccccc32)c1C#N
- TGI (IGROV1 ovarian): > 10 µM
- TGI (COLO 205 colon): > 10 µM
- TGI (HCT-15 colon): > 10 µM
- TGI (PC-3 prostate): > 10 µM
- TGI (DU-145 prostate): > 10 µM
- TGI (CAKI-1 renal): > 10 µM
- TGI (SNB-75 CNS): > 10 µM
- TGI (HT29 colon): > 10 µM
- TGI (786-0 renal): > 10 µM
- TGI (MDA-MB-231 breast): > 10 µM
- TGI (MDA-N): > 10 µM
- TGI (MALME-3M melanoma): > 10 µM
- TGI (SW-620 colon): > 10 µM
- TGI (KM12 colon): > 10 µM
- TGI (SK-MEL-28 melanoma): > 10 µM
- TGI (HOP-62 NSCLC): > 10 µM
- TGI (MCF7 breast): > 10 µM
- TGI (SR leukemia): > 10 µM
- TGI (CCRF-CEM leukemia): > 10 µM
- TGI (EKVX NSCLC): > 10 µM
- TGI (SK-MEL-5 melanoma): > 10 µM
- TGI (RXF 393 renal): > 10 µM
- TGI (A549 NSCLC): > 10 µM
- TGI (UACC-257 melanoma): > 10 µM
- TGI (SK-OV-3 ovarian): > 10 µM
- TGI (SN12C renal): > 10 µM
- TGI (NCI-H23 lung): > 10 µM
- TGI (T-47D breast): > 10 µM
- TGI (M14 melanoma): > 10 µM
- TGI (UACC-62 melanoma): > 10 µM
- TGI (SF-295 CNS): > 10 µM
- TGI (TK-10 renal): > 10 µM
- TGI (LOX IMVI melanoma): > 10 µM
- TGI (MOLT-4 leukemia): > 10 µM
- TGI (RPMI-8226 leukemia): > 10 µM
- TGI (HCC-2998 colon): > 10 µM
- TGI (OVCAR-8 ovarian): > 10 µM
- TGI (K-562 leukemia): > 10 µM
- TGI (SF-268 CNS): > 10 µM

SMILES: Cc1cc(=O)oc2cc(OCC(O)COC(C)C)ccc12 (centres undefined)
- TGI (OVCAR-3 ovarian): > 100 µM
- TGI (IGROV1 ovarian): > 100 µM
- TGI (HS 578T breast): > 100 µM
- TGI (COLO 205 colon): > 100 µM
- TGI (HCT-15 colon): > 100 µM
- TGI (PC-3 prostate): > 100 µM
- TGI (DU-145 prostate): > 100 µM
- TGI (NCI-H460 lung): > 100 µM
- TGI (CAKI-1 renal): > 100 µM
- TGI (HCT-116 colon): > 100 µM
- TGI (U251 CNS): > 100 µM
- TGI (SNB-75 CNS): > 100 µM
- TGI (SNB-19 CNS): > 100 µM
- TGI (HT29 colon): > 100 µM
- TGI (786-0 renal): > 100 µM
- TGI (MDA-MB-231 breast): > 100 µM
- TGI (HOP-92 NSCLC): > 100 µM
- TGI (MDA-N): > 100 µM
- TGI (MALME-3M melanoma): > 100 µM
- TGI (SW-620 colon): > 100 µM
- TGI (KM12 colon): > 100 µM
- TGI (SK-MEL-28 melanoma): > 100 µM
- TGI (HOP-62 NSCLC): > 100 µM
- TGI (UO-31 renal): > 100 µM
- TGI (MCF7 breast): > 100 µM
- TGI (SR leukemia): > 100 µM
- TGI (CCRF-CEM leukemia): > 100 µM
- TGI (HL-60(TB) leukemia): > 100 µM
- TGI (EKVX NSCLC): > 100 µM
- TGI (SK-MEL-5 melanoma): > 100 µM
- TGI (OVCAR-5 ovarian): > 100 µM
- TGI (A549 NSCLC): > 100 µM
- TGI (UACC-257 melanoma): > 100 µM
- TGI (NCI-H522 lung): > 100 µM
- TGI (SK-OV-3 ovarian): > 100 µM
- TGI (NCI/ADR-RES ovarian): > 100 µM
- TGI (SN12C renal): > 100 µM
- TGI (NCI-H23 lung): > 100 µM
- TGI (T-47D breast): > 100 µM
- TGI (M14 melanoma): > 100 µM
- TGI (UACC-62 melanoma): > 100 µM
- TGI (ACHN renal): > 100 µM
- TGI (SF-295 CNS): > 100 µM
- TGI (TK-10 renal): > 100 µM
- TGI (LOX IMVI melanoma): > 100 µM
- TGI (MOLT-4 leukemia): > 100 µM
- TGI (RPMI-8226 leukemia): > 100 µM
- TGI (HCC-2998 colon): > 100 µM
- TGI (OVCAR-8 ovarian): > 100 µM
- TGI (K-562 leukemia): > 100 µM
- TGI (SF-268 CNS): > 100 µM
- TGI (OVCAR-4 ovarian): > 100 µM
